This is an account of results in US20250204541A1, “GAS PHASE TREATMENT OF PRODUCE” (priority 2022, published 2025).

Common to all, as to format: in vivo
In experiment [1] the test system is Penicillium digitatum (Pd). Kind of experiment: Antifungal activity of vapor against Penicillium digitatum in wounded, infected mandarins. The following applies: for effect on Pd mold: airtight container, assessed after 6 days. The protocol: Example 4. The antifungal activity of a range of AITC vapor concentrations was tested against Pd in mandarins. All mandarins were wounded by puncturing with a screw and infected by dispensing 1000 Pd spores suspended in 10 μL of water in each wound. The fruit was then placed in an airtight container, a range of AITC volumes were disposed onto a Whatman filter paper disc, the disc was suspended in front of a battery-powered fan, and the container closed for 18 hours. The mandarins were then left at ambient temperature and high humidity for 6 days. The test groups were mandarins that were infected and untreated, and infected and treated with 62.5 μL, 125 μL, 250 μL, and 500 μL on the filter paper disc. […] FIG. 6 is a bar graph showing incidence (% infected) for the test groups.
Example 5. The antifungal activity of a range of AITC vapor exposure times was tested to determine the effects against Pd in mandarins. All samples were wounded by puncturing with a screw. Mandarins were infected by dispensing 1000 Pd spores suspended in 10 μL of water in the wound. The fruit was then placed in an airtight container, 125 μL of AITC was dispensed onto a Whatman filter paper disc, the disc suspended in front of a battery-powered fan, and the container closed for 15 minutes to 2 hours. The test groups were then left at ambient temperature, high humidity, and assessed for Pd mold after 6 days. The test groups consisted of mandarins that were: uninfected and untreated; infected and untreated; infected and treated with 0.5 g/L imazalil; infected, treated with 125 μL of AITC on the filter paper, and exposed to the vapor for 15 minutes, 30 minutes, 1 hour, and 2 hours.

The subject of experiment [2] is Colletotrichum gloeosporioides (Cg). In words: Antifungal activity of vapor against Colletotrichum gloeosporioides in avocados. The protocol: Example 7. The antifungal activity of AITC and DADS vapor against Colletotrichum gloeosporioides (Cg) was tested in avocados. All test pieces were wounded by removing the stem and infected by dispensing 1000 Cg spores suspended in 10 μL of water into the wound. The test groups consisted of avocados that were: untreated and uninfected; untreated and infected; treated by dipping in a solution of 0.1 g/L of prochloraz; exposed to the vapor of 3 mL of AITC disposed in a Petri dish; and exposed to the vapor of 3 mL of DADS disposed in a Petri dish. FIG. 9 quantifies the infection results. AITC vapor reduced the incidence of Cg mold by 97% compared to the untreated test group and 70% compared to the prochloraz treated test group. DADS vapor reduced the incidence of Cg mold by 60% compared to the untreated test group.
Example 8. The antifungal activity of a range of DADS vapor exposure times was tested against Cg in avocados. All test pieces were wounded by removing the stem and infected by dispensing 1000 Cg spores suspended in 10 μL of water into the wound. The test groups consisted of avocados that were: infected and untreated; and exposed to the vapor of 3 mL of DADS in a Petri dish for 24 hours, 48 hours, and 72 hours. FIG. 10 quantifies the infection results. Test group exposed to DADS vapor at all exposure times reduced the incidence of Cg mold compared to the untreated test group. A 24 hour DADS exposure reduced the incidence of Cg mold by 8%. A 48 hour DADS exposure reduced the incidence of Cg mold by 25%. A 72 hour DADS exposure reduced the incidence of Cg mold by 57%.
Example 9. The antifungal activity of a range of AITC and carvacrol vapor exposure times was tested against Cg in avocados. To measure the effect of the various treatments on ripening, durometer shore was taken after 7 days of incubation at ambient temperature and high humidity. All samples were wounded by removing the stem and infected by dispensing 1000 Cg spores suspended in 10 μL of water in the wound. The test groups consisted of avocados that were: infected and left untreated on the benchtop; infected and left untreated under a fume hood; exposed to the vapor of 3 mL of AITC in a Petri dish for 24 hours, 48 hours, and 72 hours; and exposed to the vapor of 3 mL of carvacrol in a Petri dish for 72 hours. FIG. 11 quantifies the infection results. […] All exposure times to AITC vapor reduced the incidence of Cg mold compared to the untreated samples. A 24 hour AITC exposure reduced the incidence of Cg mold by 90%. A 48 hour AITC exposure reduced the incidence of Cg mold by 97%. A 72 hour AITC exposure reduced the incidence of Cg mold by 83%. […]
Example 21. The antifungal activity of avocados exposed to AITC vapor and prochloraz was tested against Cg in avocados. To measure the effect of the various treatments on ripening, durometer shore was taken after 5 days of incubation at ambient temperature (about 20° C. to about 25° C.) and high humidity (about 88% relative humidity to about 93% relative humidity). All samples were wounded by removing the stem and infected by dispensing 1000 Cg spores suspended in 10 μL of water in the wound. Exposure to vapor was done by placing the avocados in an airtight container, dispensing AITC onto Whatman filter paper discs, suspending the discs in front of a battery-powered fan, closing the container and incubating the avocados for 30 minutes. After vapor exposure, the avocados were left at ambient temperature, high humidity, and assessed for Cg mold on day 5. Treatment groups consisted of avocados that were: exposed for 30 minutes to the vapor of 125 μL of AITC disposed on a filter paper disc; dipped in a solution of 0.1 g/L of prochloraz and placed to dry on a rack in front of a fan for 30 min; infected and left untreated; and uninfected and untreated. […] To prepare the 0.1 g/L of prochloraz, 10 mg of prochloraz was mixed with 10 mL of ethanol and 90 mL of water. […] A 24 hour AITC exposure reduced the incidence of Cg mold by 90%. […]

The test system of the next experiment is Botrytis cinerea (Bc). In words: Antifungal activity of vapor against Botrytis cinerea in grapes. The note with it: vapor of 3 mL in a Petri dish for 72 hours. The protocol: Example 12. The antifungal activity of AITC and DADS vapor against Botrytis cinerea (Bc) in grapes was tested. All samples were wounded by making a 3 mm deep puncture in the skin. Samples were infected by dispensing 1000 Bc spores suspended in 10 μL of water in the wound. The test groups consisted of grapes that were: uninfected and untreated; infected and untreated; exposed to the vapor of 3 mL of AITC in a Petri dish for 72 hours; and exposed to the vapor of 3 mL of DADS in a Petri dish for 72 hours. FIG. 17 quantifies the infection results. […] Both AITC and DADS vapor were effective at controlling Bc mold. Treatment with AITC can potentially lead to changes in color or flavor of the grapes.

Setting [3] is: mandarins, 72 hours vapor of 3 mL in a Petri dish.

Consider `C=CCN=C=S` [AITC, allyl isothiocyanate], for which the “inhibition of fungal growth” value in experiment [1] (mandarins infected with Pd, 72 hours vapor of 3 mL in a Petri dish) is on record as “approximately 100%”. Besides, the “effect on Pd mold” value in experiment [1] (mandarins, 125 μL on filter paper (730 ppm), 30 min exposure) was “greatly reduced severity of Pd mold infection”; in experiment [1] (mandarins, 125 μL on filter paper, 15 minute exposure), “little effect on Pd mold”; in experiment [1] (mandarins, 125 μL on filter paper, 1 hour exposure), “greatly reduced severity and incidence of Pd mold”. The “effect on Pd infection” value in experiment [1] (mandarins, 125 μL on filter paper disc, airtight container with fan, 18 hours, then 6 days) is “substantially prevented the growth mold”; in experiment [1] (mandarins, 250 μL on filter paper disc, airtight container with fan, 18 hours, then 6 days), “substantially prevented the growth mold”; in experiment [1] (mandarins, vapor of 500 μL in a Petri dish for 72 hours) it was “substantially prevented Pd infections”. The “effect on Pd infection / mold growth” value in experiment [1] (setting [3]) is reported as “substantially prevented”. In addition, the “reduction of the incidence of Cg mold” value in experiment [2] (24 hour AITC exposure as printed) amounted to 90%; in experiment [2] (Example 9, vapor of 3 mL in a Petri dish for 24 hours, 7 days of incubation), 90%; in experiment [2] (Example 9, vapor of 3 mL in a Petri dish for 48 hours, 7 days of incubation), 97%; in experiment [2] (Example 9, vapor of 3 mL in a Petri dish for 72 hours, 7 days of incubation), 83%. For the same molecule, the “incidence of Cg mold” value in experiment [2] (Example 21, 30 minutes vapor of 125 μL on filter paper disc, assessed on day 5) was “reduced the incidence of Cg mold compared to the untreated samples and the prochloraz treated sample”. For the same molecule, the “reduction of the incidence of Cg mold compared to the untreated test group” value in experiment [2] (vapor of 3 mL in a Petri dish) is recorded as 97%. Further, the “reduction of the incidence of Cg mold compared to the prochloraz treated test group” value in experiment [2] (vapor of 3 mL in a Petri dish, prochloraz 0.1 g/L dip) is recorded as 70%. For the same molecule, in the experiment on Botrytis cinerea (Bc), the “effect on Bc mold” value is reported as “substantially eliminated Bc mold”.
On to `C=CCSSCC=C` [DADS, diallyl disulfide], for which, in experiment [1] (setting [3]), the “effect on Pd infection / mold growth” value is “substantially prevents Pd mold growth”. Besides, in experiment [1] (mandarins, exposed for 72 hours to the vapor of 3 mL in a Petri dish), the “reduction of the incidence of Pd mold compared to the untreated samples” value is listed as 85%. In addition, the “reduction of the incidence of Cg mold” value in experiment [2] (Example 8, vapor of 3 mL in a Petri dish for 24 hours) is given as 8%; in experiment [2] (Example 8, vapor of 3 mL in a Petri dish for 48 hours), 25%; in experiment [2] (Example 8, vapor of 3 mL in a Petri dish for 72 hours) it was 57%. Further, the “reduction of the incidence of Cg mold compared to the untreated test group” value in experiment [2] (vapor of 3 mL in a Petri dish) was determined as 60%. Moreover, the “effect on Bc mold” value with Botrytis cinerea (Bc) is listed as “substantially eliminated Bc mold”.
